Experimental data as given in article PMC3179181 (Journal of medicinal chemistry, 2010).
Entries after “also recorded” stand apart in the source; their conditions may differ.

Key:
Caspase 3 and 7 = test: Caspase 3/7 activity; assay type: cell-based; conditions: 48 hours, 10 μM, versus vehicle; for Caspase 3 and 7 activity: serum free
[1] = rat
PLD2 [2] = biological target: T1, PLD2 (Homo sapiens, UniProt O14939)
PLD1 = biological target: T2, PLD1 (Homo sapiens, UniProt Q13393); test: cell-based
T2 sequence (Q13393 1-1074): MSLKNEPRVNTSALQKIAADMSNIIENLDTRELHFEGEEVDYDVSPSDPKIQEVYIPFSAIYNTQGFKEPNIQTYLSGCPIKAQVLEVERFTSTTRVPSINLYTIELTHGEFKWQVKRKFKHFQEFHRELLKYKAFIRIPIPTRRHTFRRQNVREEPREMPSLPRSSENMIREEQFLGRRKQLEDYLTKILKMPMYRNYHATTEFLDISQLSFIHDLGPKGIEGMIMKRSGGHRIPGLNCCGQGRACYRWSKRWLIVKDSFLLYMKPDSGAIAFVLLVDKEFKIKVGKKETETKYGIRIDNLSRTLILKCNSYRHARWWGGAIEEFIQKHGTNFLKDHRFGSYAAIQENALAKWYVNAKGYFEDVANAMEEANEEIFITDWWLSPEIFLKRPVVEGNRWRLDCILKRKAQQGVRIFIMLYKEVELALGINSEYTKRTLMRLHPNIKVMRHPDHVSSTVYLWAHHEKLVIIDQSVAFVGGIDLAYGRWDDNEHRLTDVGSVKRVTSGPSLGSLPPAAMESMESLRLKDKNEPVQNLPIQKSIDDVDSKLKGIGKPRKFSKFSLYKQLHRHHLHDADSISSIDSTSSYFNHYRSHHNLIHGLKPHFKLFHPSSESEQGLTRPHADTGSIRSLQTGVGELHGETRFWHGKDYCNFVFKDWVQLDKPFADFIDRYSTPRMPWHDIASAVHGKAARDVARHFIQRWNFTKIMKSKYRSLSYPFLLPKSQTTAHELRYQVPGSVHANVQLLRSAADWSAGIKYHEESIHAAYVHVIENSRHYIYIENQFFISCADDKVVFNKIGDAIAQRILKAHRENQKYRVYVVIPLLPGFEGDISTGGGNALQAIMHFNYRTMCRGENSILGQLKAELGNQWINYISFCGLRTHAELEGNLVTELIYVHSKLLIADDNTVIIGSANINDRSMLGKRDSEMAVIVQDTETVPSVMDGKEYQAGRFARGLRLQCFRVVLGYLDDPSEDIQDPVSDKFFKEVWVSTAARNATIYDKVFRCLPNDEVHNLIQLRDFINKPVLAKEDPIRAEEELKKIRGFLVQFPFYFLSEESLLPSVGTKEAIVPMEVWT

PLD2 [3] = biological target: T1, PLD2; test: cell-based

T1 sequence (O14939 whole entry): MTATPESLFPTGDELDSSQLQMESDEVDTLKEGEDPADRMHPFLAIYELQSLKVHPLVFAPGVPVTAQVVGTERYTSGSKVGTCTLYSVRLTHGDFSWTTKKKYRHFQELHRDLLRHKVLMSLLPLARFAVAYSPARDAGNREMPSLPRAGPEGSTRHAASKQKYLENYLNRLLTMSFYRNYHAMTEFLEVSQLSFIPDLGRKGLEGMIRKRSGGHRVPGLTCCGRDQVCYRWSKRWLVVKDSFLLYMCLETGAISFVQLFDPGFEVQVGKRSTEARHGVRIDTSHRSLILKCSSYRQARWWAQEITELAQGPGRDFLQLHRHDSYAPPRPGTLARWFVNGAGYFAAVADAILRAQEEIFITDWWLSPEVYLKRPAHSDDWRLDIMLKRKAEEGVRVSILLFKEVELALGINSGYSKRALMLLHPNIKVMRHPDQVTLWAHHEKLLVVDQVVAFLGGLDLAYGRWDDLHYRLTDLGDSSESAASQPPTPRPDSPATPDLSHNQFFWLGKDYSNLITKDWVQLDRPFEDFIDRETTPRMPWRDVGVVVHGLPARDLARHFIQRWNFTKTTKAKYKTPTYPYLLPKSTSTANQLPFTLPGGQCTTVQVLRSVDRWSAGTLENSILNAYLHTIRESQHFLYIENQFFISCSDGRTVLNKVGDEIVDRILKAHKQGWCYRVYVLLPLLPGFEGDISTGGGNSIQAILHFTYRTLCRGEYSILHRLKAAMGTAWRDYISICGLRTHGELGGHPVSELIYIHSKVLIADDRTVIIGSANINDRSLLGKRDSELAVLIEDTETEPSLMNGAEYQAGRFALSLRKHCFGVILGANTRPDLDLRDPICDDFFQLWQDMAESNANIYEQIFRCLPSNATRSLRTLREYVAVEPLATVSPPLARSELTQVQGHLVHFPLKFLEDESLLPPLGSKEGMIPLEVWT

SMILES	increase in Caspase 3 and 7 activity (Caspase 3 and 7; 10% FBS)	Caspase 3 and 7 activity (Caspase 3 and 7)	plasma protein binding (% bound) [1]	Fold PLD2 Selective (PLD2 [2])	IC50 (PLD1)	IC50 (PLD2 [3])
C[C@@H](CN1CCC(n2c(=O)[nH]c3cc(Br)ccc32)CC1)NC(=O)[C@H]1C[C@@H]1c1ccccc1 [compound 14]	marginal increase; also recorded: fairly resistant to PLD inhibitor treatment	increased Caspase 3 & 7 activity	–	–	–	–
O=C(NCCN1CCC2(CC1)C(=O)NCN2c1cccc(F)c1)c1ccc2ccccc2c1 [22a, N-(2-(1-(3-fluorophenyl)-4-oxo-1,3,8-triazaspiro[4.5]decan-8-yl)ethyl)-2-naphthamide]	–	increased Caspase 3 & 7 activity	97.9 % bound	–	–	–
C[C@@H](CN1CCC2(CC1)C(=O)NCN2c1ccc(F)c(F)c1)NC(=O)c1ccc2ccccc2c1.O=C(O)C(F)(F)F [24a, (S)-N-(1-(1-(3,4-difluorophenyl)-4-oxo-1,3,8-triazaspiro[4.5]decan-8-yl)propan-2-yl)-2-naphthamide 2,2,2-trifluoroacetate]	–	–	–	23 fold	2800 nM	120 nM
